{"source": "patent US7910568B2", "about": "“Derivatives of 4- or 5-aminosalicylic acid” (Antibe Therapeutics Inc., priority 2005, dated 2011)", "key": {"[1]": {"assay": "H2S generation in buffer, liver homogenate and liver homogenate with PAG, sulfide sensitive electrode", "assay_type": "in vitro ADME, rat", "details": "1 mM compound, FIG. 21; for H2S release in buffer: potassium phosphate buffer pH 7.4, 37° C.; for Effect of PAG (DL-propargylglycine) on H2S generation in liver homogenate: PAG 2 mM, inhibitor of cystathionine γ-lyase"}, "[2]": {"system": "visceral pain perception in response to colorectal distension", "assay": "Rat model of visceral pain perception, colorectal distension, abdominal withdrawal reflex score", "assay_type": "in vivo", "details": "for Pain perception score after glibenclamide pretreatment: glibenclamide 10 mg/kg i.p. 30 min before", "description": "A rat model of visceral pain perception, a pre-clinical model of irritable bowel syndrome, was used in the following example. Rats (male, Wistar, 200-250 g, obtained from Charles River, Monza, Italy), were housed in plastic cages and maintained under controlled conditions with 12-hours light/dark cycle with lights on at 7.00 AM. Tap water and standard laboratory chow were freely available. Before experiments, rats were individually trained by spending 2-3 hours per day in a plexiglass cage for 2-3 days. It allowed them to adjust to a movement-restriction environment. Food was withheld for 12 hours before colorectal distension (CRD) recording were performed. Experiments were performed in awake rats and were conducted in a blind manner in that the observer was not aware of the identity of drug administered to each animal.\nIn the testing day, rats were sedated with ether inhalation and a 2 cm long latex balloon was inserted intrarectally 2 cm from the anal verge and fixed at the base of the tail. The balloon was connected via a double-barreled cannula to a pressure transducer to continuously monitoring the rectal pressure by a computer (PowerLab PC, A.D. Instruments, Milford, Mass., USA) and to a syringe for inflation/deflation of the balloon. The rats were then housed in a small cage (20×8×8 cm) on an elevated Plexiglas™ platform and allowed to wake up and adapt for 1 hour. After recovery from sedation, animals underwent the CRD procedure and behavioral responses were tested. The night before the experiments, the balloons were inflated and left overnight so the latex stretched and the balloons became compliant.\nCRD of 20 seconds, performed every 5 minutes, was applied in increment of 0.4 ml starting from 0.4 ml up to 1.6 ml water. To achieve an accurate measurement of the colonic parameters and perception, the distensions were repeated twice for each intensity and data for each animal were averaged for analysis. Each animal underwent a double set of CRD. Twenty minutes after the first sequence of CRD (0.4 mL-1.6 ml water), drugs were administered intraperitoneally (i.p.) and a second set of CRD was performed. Behavioral responses during the first and the second set of CRD were assessed and compared.\nBehavioral response to CRD was assessed by measuring the abdominal withdrawal reflex (AWR) using a semiquantitative score (1).\nThe effects of mesalamine and Compound XXXV on colonic compliance and sensitivity were determined using a total of 8 fasting rats. To investigate whether the administration of mesalamine and Compound XXXV could revert pain induced by CRD, after the first sequence of CRD, […], after which a second set of CRD was repeated.\nAll data are presented as the mean±SEM, with sample sizes of 4 rats/group; statistical comparison of paired data was performed by the Wilcoxon signed rank test. An associated probability (p value) of less that 5% was considered significant."}, "[3]": {"system": "thoracic aorta rings", "assay": "Vasorelaxant effect on phenylephrine-precontracted thoracic aorta rings", "design": "species or system CD-1 mice", "details": "cumulative 10 nM-3 mM on PE (1 μM) precontracted rings with endothelium; FIG. 22", "description": "CD-1 mice were sacrificed and thoracic aorta was rapidly dissected and cleaned from fat and connective tissue. […] Changes in isometric tension were recorded with PowerLab™ data acquisition system (Ugo Basile, Italy). […] Rings were initially stretched until a resting tension of 1.5 g was reached and allowed to equilibrate for at least 40 minutes during which tension was adjusted, when necessary, to 1.5 g and bathing solution was periodically changed.\nVehicle represents buffer but no compound. Curves to tested compounds were constructed in presence of endothelium.\nData obtained are shown in FIG. 22 and are expressed as mean±SEM. The level of statistical significance was determined by 2-way analysis of variance (ANOVA) followed by Bonferroni's test for multiple comparison, using the GraphPad™ software."}, "[4]": {"system": "myeloperoxidase (MPO) activity", "assay": "TNBS-induced colitis in mice, colonic myeloperoxidase (MPO) activity as marker of granulocyte infiltration", "assay_type": "in vivo", "details": "Compound XXVII 100 mg/kg; FIG. 6", "description": "(§1) A standard experimental animal model of colitis induced by intracolonic administration of 2,4,6-trinitrobenzene sulfonic acid (TNBS) to mice is used in the following example. A detailed description of this model has been published (Santucci et al. (2003) Gastroenterology 124:1381-94) and is incorporated herein by reference. Briefly, 6-8 week old Balb/c mice were given TNBS intracolonically at a dose of 1.5 mg in 0.1 mL of 30% ethanol. The mice were randomized to the various treatment groups (n=6 per group). Beginning one hour later and continuing every 12 h for 5 days, the mice were treated orally with vehicle (1% carboxymethylcellulose (CMC)), 5-ASA (mesalamine) (25, 50 or 75 mg/kg) or with equimolar doses of 2-hydroxy-5-amino-benzoic acid 4-(thioxo-5H-[1,2]dithiol-3-yl)-phenyl ester hydrochloride (Compound XXXV) (130 mg/kg), or with […] (100 mg/kg), 50% (66 mg/kg) and 25% (33 mg/kg) of that dose. The mice were evaluated (blindly) on the final day of the study for the presence of diarrhea and fecal occult blood, and their body weights were measured. […] After sacrifice, a sample of the colon was excised for measurement of myeloperoxidase (MPO) activity, as a marker of granulocyte infiltration. All results were compared to those obtained with healthy mice as well."}, "[5]": {"system": "leukocyte adherence to the vascular endothelium", "assay": "Aspirin-induced leukocyte adherence to the vascular endothelium, intravital microscopy of mesenteric venules", "assay_type": "in vivo, rat", "description": "Leukocyte adherence was studied using intravital microscopy, as described in detail previously (Wallace et al., (1993) Am. J. Physiol. 265: 993-998, incorporated hereto by reference). Rats were anesthetized with pentobarbital sodium (60 mg/kg i.p.) and cautery incisions were made along the abdominal region. A tracheotomy was performed to facilitate breathing. The rats were placed in a supine position, and a segment of the mesentery was exteriorized through the abdominal incision. The mesentery was carefully placed over an optically clear viewing pedestal that allowed for trans-illumination of a 2-cm^2 segment of tissue. All exposed tissue was covered with saline-soaked gauze to minimize dehydration. The temperature of the pedestal was kept at 37° C. and the mesentery was superfused with warmed bicarbonate-buffered saline (pH 7.4). An intravital microscope (Nikon L25/0.35) and a ×10 eyepiece were used to observe the mesenteric microcirculation. Post-capillary venules with diameters ranging from 20 to 40 μm were selected for the study. A video camera mounted on the microscope (Panasonic™ digital 5000) projected the image onto a monitor, and the images were recorded for playback analysis using a videocassette recorder. Images of the mesenteric microcirculation were recorded 5 minutes prior to aspirin administration (baseline), at the time of aspirin administration (time 0-5) and every 15 minutes for 60 minutes. Leukocyte adherence was blindly quantified from videotaped images of the vessels made over 5-min periods as the number of leukocytes that remained stationary along the vessel wall for 30 s or more (expressed per 100 μm venule length). Groups of rats (at least 5 in each) were pretreated with Compound XXXV (130 mg/kg), Compound XXVII (100 mg/kg), mesalamine (50 mg/kg), or vehicle 60 min prior to aspirin (or vehicle) administration. These drugs were given intragastrically. In some experiments, rats were treated with glibenclamide (10 mg/kg i.p.) or vehicle 30 min prior to administration of these compounds."}, "[6]": {"system": "TNBS-induced colitis", "assay": "TNBS-induced colitis in mice, disease activity score", "assay_type": "in vivo", "details": "Compound XXVII 100 mg/kg vs mesalamine 50 mg/kg, 4-HTB 50 mg/kg and their mixture; FIG. 5", "description": "as §1"}, "[7]": {"assay": "Viability of HT-29 human colon cancer cells, MTT assay", "assay_type": "cell-based", "details": "HT-29 colon cancer cells, 72 h exposure, HT-29, MTT, read-out: Cell viability rate as a percent of the vehicle (DMSO)-treated cells", "description": "HT-29 cells were grown in culture using standard methods. The cells were exposed to vehicle (DMSO), mesalamine or Compound XXXV. Concentrations ranging from 0.1 to 10 μM were tested, with each concentration tested in 6 wells. At the end of 72 h of exposure to the test drugs, cell viability was measured using the MTT [3-(4,5-dimethylthiaxol-2-yl)-2,5-diphenyltetrazolium bromide] assay (Carmichael et al. (1978) Cancer Res. 47, 936-942), incorporated herein by reference."}, "[8]": {"details": "after patients have taken the usual doses; Dig. Dis. Sci. 1989; 34: 573-578; cited from earlier work"}, "[9]": {"details": "equimolar doses: mesalamine 50 mg/kg, Compound XXXV 130 mg/kg, ADT-OH 80 mg/kg, Compound XXVII 100 mg/kg, 4-HTB 50 mg/kg, vs vehicle"}, "[10]": {"details": "0.8 mL colorectal distention, 100 mg/kg, FIG. 17"}}}
{"smiles": "Oc1ccc(-c2cc(=S)ss2)cc1", "note": "[ADT-OH, 5-p-hydroxyphenyl-1,2-dithione-3-thione, reference compound]", "values": [{"measurement": "H2S release in buffer", "setting": "[1]", "value": "did not release significant H2S"}, {"measurement": "Pain perception score", "setting": "[2]; [9]", "value": "Only Compound XXXV and Compound XXVII significantly reduced pain perception"}]}
{"smiles": "NC(=S)c1ccc(O)cc1", "note": "[Compound 4-HTB, 4-hydroxythiobenzamide, reference compound]", "values": [{"measurement": "H2S release in buffer", "setting": "[1]", "value": "did not release significant H2S"}, {"measurement": "Pain perception score", "setting": "[2]; [9]", "value": "Only Compound XXXV and Compound XXVII significantly reduced pain perception"}, {"measurement": "Vasorelaxant effect (% relaxation), concentration dependent, compared to vehicle", "setting": "[3]", "value": "significant vasorelaxant effects"}]}
{"smiles": "NC(=S)c1ccc(OC(=O)c2cc(N)ccc2O)cc1", "note": "[Compound XXVII, 5-Amino-2-hydroxy-benzoic acid 4-thiocarbamoyl-phenyl ester]", "values": [{"measurement": "MPO activity (granulocyte infiltration)", "setting": "[4]", "value": "significantly reduced inflammation"}, {"measurement": "Effect of PAG (DL-propargylglycine) on H2S generation in liver homogenate", "setting": "[1]", "value": "lack of effect"}, {"measurement": "H2S release in buffer", "setting": "[1]", "value": "release H2S spontaneously (in buffer)"}, {"measurement": "H2S release in liver homogenate compared with buffer", "setting": "[1]; rat liver homogenate 10% (wt/vol)", "value": "greater when in the presence of tissue"}, {"measurement": "Aspirin-induced leukocyte adherence, final time period", "setting": "[5]; minutes 60-65, XXXV 130 mg/kg, XXVII 100 mg/kg intragastric, FIG. 20", "value": "suppress aspirin-induced leukocyte adherence"}, {"measurement": "Aspirin-induced leukocyte adherence, final time period, after glibenclamide pretreatment", "setting": "[5]; minutes 60-65, glibenclamide 10 mg/kg i.p., FIG. 20", "value": "reverse this inhibitor effect"}, {"measurement": "Pain perception score after glibenclamide pretreatment", "setting": "[2]; [10]", "value": "reversed by pretreatment with glibenclamide"}, {"measurement": "Pain perception score", "setting": "[2]; [10]", "value": "significantly reduced the pain perception"}, {"measurement": "Pain perception score", "setting": "[2]; [9]", "value": "significantly reduced pain perception"}, {"measurement": "Disease Activity Index", "setting": "[6]", "value": "almost three times as effective as either mesalamine alone, 4-HTB alone or a mixture of mesalamine and 4-HTB"}]}
{"smiles": "COc1ccc(Cl)cc1C(=O)NCCc1ccc(S(=O)(=O)NC(=O)NC2CCCCC2)cc1", "note": "[Glibenclamide, glibenclamide, reference compound]", "values": [{"measurement": "Leukocyte adherence without aspirin", "setting": "[5]; glibenclamide alone, 10 mg/kg i.p.", "value": "did not affect leukocyte adherence"}, {"measurement": "Aspirin-induced leukocyte adherence", "setting": "[5]; intragastric pretreatment 60 min prior to aspirin (XXXV 130 mg/kg, mesalamine 50 mg/kg), glibenclamide 10 mg/kg i.p., FIG. 19", "value": "did not affect the magnitude of aspirin-induced leukocyte adherence"}]}
{"smiles": "N[C@@H](CS)C(=O)O", "note": "[L-cysteine, reference compound]", "values": [{"measurement": "Effect of PAG (DL-propargylglycine) on H2S generation in liver homogenate", "setting": "[1]", "value": "markedly inhibited"}, {"measurement": "H2S release in buffer", "setting": "[1]", "value": "did not release significant H2S"}]}
{"smiles": "Nc1ccc(O)c(C(=O)O)c1", "note": "[Mesalamine, 5-aminosalicylic acid]", "values": [{"measurement": "viability at 72 h, 0.1 µM", "setting": "[7]; 0.1 μM", "value": "104 ± 2.5", "unit": "%"}, {"measurement": "viability at 72 h, 1 µM", "setting": "[7]; 1 μM", "value": "101 ± 3.5", "unit": "%"}, {"measurement": "viability at 72 h, 10 µM", "setting": "[7]; 10 μM", "value": "91.1 ± 3.2", "unit": "%"}, {"measurement": "Aspirin-induced leukocyte adherence after glibenclamide pretreatment", "setting": "[5]; glibenclamide 10 mg/kg i.p. 30 min prior to the compound, FIG. 19", "value": "no effect"}, {"measurement": "Pain perception score after glibenclamide pretreatment", "setting": "[2]; [10]", "value": "did not affect the pain perception"}, {"measurement": "Pain perception score", "setting": "[2]; [10]", "value": "no significant effect"}, {"measurement": "Pain perception score", "setting": "[2]; [9]", "value": "Only Compound XXXV and Compound XXVII significantly reduced pain perception"}, {"measurement": "Concentration in the colonic lumen", "setting": "[8]", "value": "up to 5 mM"}]}
{"smiles": "CC(=N)S", "note": "[thioacetamide]", "values": [{"measurement": "Vasorelaxant effect (% relaxation), concentration dependent, compared to vehicle", "setting": "[3]", "value": "significant vasorelaxant effects"}]}
